What all share (assay): relative viability (nuclei count vs DMSO), 5 days (fraction); higher = more cells survive
Compound in one test: CCOC1=CC=CC=C1N=NC2=C(NN(C2=O)C3=NC(=CS3)C4=CC=CC=C4)C [BAM7]
The method, boiled down:
(§1)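 Lung cancer cell lines received five library-drug doses (not always all listed) spaced by √10, pinned on vehicle-anchored 1536-well plates after an overnight stay at 37 °C. Five days later, with no medium change, nuclei were Hoechst-stained, imaged at 4× and counted with MetaXpress. Viability is treated-well nuclei relative to vehicle-well nuclei, as a median across plates. Passing plates had control CV below 25% and at least one doubling.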

Compound in test [1]: CCn1c(-c2nonc2N)nc2c(C#CC(C)(C)O)ncc(OC[C@H]3CCCNC3)c21
In a few lines:
as §1

Compound in the test “BAM7 + Trametinib”: CCOC1=CC=CC=C1N=NC2=C(NN(C2=O)C3=NC(=CS3)C4=CC=CC=C4)C [BAM7] + CC(=O)Nc1cccc(-n2c(=O)n(C3CC3)c(=O)c3c(Nc4ccc(I)cc4F)n(C)c(=O)c(C)c32)c1 [Trametinib] (partner 0.02 µM)
In a few lines:
(§2)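 Relative viability divides the nuclei count in treated wells by that in vehicle wells. Lung cancer cell lines were seeded in 1536-well plates, dosed by pin tool the next day, and fixed and stained after 5 days in one step with final 0.05% Triton X-100, 1% formaldehyde and 1 ug/ml Hoechst. Dosing was a single drug or a fixed anchor-drug dose plus five library-drug doses (not always all listed) in √10 steps, and values are medians of duplicate plates imaged at 4×.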

Compound in test [2]: CCn1c(-c2nonc2N)nc2c(C#CC(C)(C)O)ncc(OC[C@H]3CCCNC3)c21 + CC1(C)CCC(c2ccc(Cl)cc2)=C(CN2CCN(c3ccc(C(=O)NS(=O)(=O)c4ccc(N[C@H](CCN5CCOCC5)CSc5ccccc5)c(S(=O)(=O)C(F)(F)F)c4)cc3)CC2)C1 [Navitoclax] (partner 0.5 µM)
The method, boiled down: as §2

HARA: the relative viability came to 0.942 with BAM7 (0.5 µM); 1.01 with BAM7 (5 µM); 0.836 in the test with BAM7 (15.81 µM); 0.986 with BAM7 (50 µM); 0.85 in test [1] (0.01 µM); 0.97 in test [1] (0.03162 µM). Besides, the relative viability in test [1] (0.1 µM) came to 0.722; in test [1] (0.3162 µM) it was 0.876; in test [1] (1 µM) it was 0.778; with BAM7 + Trametinib (first compound 0.5 µM) it was 0.827; in the test with BAM7 + Trametinib (first compound 5 µM) it was 0.886; in the test with BAM7 + Trametinib (first compound 15.81 µM) it was 0.607. For the same cell line, the relative viability with BAM7 + Trametinib (first compound 50 µM) is 1.13; in test [2] (first compound 0.01 µM), 1.09; in test [2] (first compound 0.03162 µM) it was 1.2; in test [2] (first compound 0.1 µM) it was 1.14; in test [2] (first compound 0.3162 µM), 1.16; in test [2] (first compound 1 µM) it was 1.14.

NCI-H596: the relative viability worked out at 0.965 with BAM7 (0.5 µM); 1.08 with BAM7 (5 µM); 0.957 with BAM7 (15.81 µM); 1.07 with BAM7 (50 µM); 0.947 in test [1] (0.01 µM); 0.962 in test [1] (0.03162 µM). Moreover, the relative viability in test [1] (0.1 µM) was determined as 0.752; in test [1] (0.3162 µM), 0.936; in test [1] (1 µM), 1.06; in the test with BAM7 + Trametinib (first compound 0.5 µM) it was 0.869; with BAM7 + Trametinib (first compound 5 µM), 0.838; with BAM7 + Trametinib (first compound 15.81 µM) it was 0.754. The relative viability with BAM7 + Trametinib (first compound 50 µM) was 0.736; in test [2] (first compound 0.01 µM), 0.914; in test [2] (first compound 0.03162 µM) it was 0.96; in test [2] (first compound 0.1 µM), 0.934; in test [2] (first compound 0.3162 µM), 1; in test [2] (first compound 1 µM) it was 0.938.

Take NCI-H23: the relative viability is 1.21 with BAM7 (0.5 µM); 1.06 with BAM7 (5 µM); 1.04 with BAM7 (15.81 µM); 1.06 with BAM7 (50 µM); 0.918 in test [1] (0.01 µM); 0.939 in test [1] (0.03162 µM). The relative viability in test [1] (0.1 µM) was 0.878; in test [1] (0.3162 µM), 0.902; in test [1] (1 µM), 0.852; with BAM7 + Trametinib (first compound 0.5 µM), 0.314; with BAM7 + Trametinib (first compound 5 µM), 0.423; with BAM7 + Trametinib (first compound 15.81 µM) it was 0.389. For the same cell line, the relative viability with BAM7 + Trametinib (first compound 50 µM) came out at 0.462; in test [2] (first compound 0.01 µM), 0.782; in test [2] (first compound 0.03162 µM) it was 0.807; in test [2] (first compound 0.1 µM) it was 0.868; in test [2] (first compound 0.3162 µM) it was 0.794; in test [2] (first compound 1 µM) it was 0.833.

As to LCLC-97TM1, the relative viability with BAM7 (0.5 µM) came to 1.12; with BAM7 (5 µM), 1.12; in the test with BAM7 (15.81 µM) it was 1.09; in the test with BAM7 (50 µM) it was 1.06; in test [1] (0.01 µM), 0.989; in test [1] (0.03162 µM), 1.01. For the same cell line, the relative viability in test [1] (0.1 µM) was 1.16; in test [1] (0.3162 µM) it was 0.854; in test [1] (1 µM), 0.944; with BAM7 + Trametinib (first compound 0.5 µM), 0.202; in the test with BAM7 + Trametinib (first compound 5 µM), 0.199; with BAM7 + Trametinib (first compound 50 µM), 0.224. Besides, the relative viability in test [2] (first compound 0.03162 µM) turned out to be 0.337; in test [2] (first compound 0.1 µM), 0.475; in test [2] (first compound 0.3162 µM), 0.641; in test [2] (first compound 1 µM) it was 0.328.

For EPLC-272H, the relative viability with BAM7 (0.5 µM) came out at 0.989; with BAM7 (5 µM) it was 0.95; with BAM7 (15.81 µM), 0.95; with BAM7 (50 µM) it was 0.995; in test [1] (0.01 µM) it was 0.874; in test [1] (0.03162 µM), 0.936. Moreover, the relative viability turned out to be 0.869 in test [1] (0.1 µM); 0.91 in test [1] (0.3162 µM); 0.87 in test [1] (1 µM); 0.292 in the test with BAM7 + Trametinib (first compound 0.5 µM); 0.31 with BAM7 + Trametinib (first compound 5 µM); 0.252 with BAM7 + Trametinib (first compound 15.81 µM). The relative viability worked out at 0.28 with BAM7 + Trametinib (first compound 50 µM); 1.24 in test [2] (first compound 0.01 µM); 1.21 in test [2] (first compound 0.03162 µM); 0.932 in test [2] (first compound 0.1 µM); 1.16 in test [2] (first compound 0.3162 µM); 0.906 in test [2] (first compound 1 µM).

In the case of NCI-H1915, the relative viability came to 1.01 in the test with BAM7 (0.5 µM); 1.13 in the test with BAM7 (5 µM); 0.989 with BAM7 (15.81 µM); 0.991 in the test with BAM7 (50 µM); 0.965 in test [1] (0.01 µM); 1.03 in test [1] (0.03162 µM). The relative viability in test [1] (0.1 µM) was 0.917; in test [1] (0.3162 µM) it was 0.983; in test [1] (1 µM) it was 0.996; with BAM7 + Trametinib (first compound 0.5 µM), 0.333; in the test with BAM7 + Trametinib (first compound 5 µM), 0.317; with BAM7 + Trametinib (first compound 15.81 µM), 0.272. In addition, the relative viability with BAM7 + Trametinib (first compound 50 µM) is 0.323; in test [2] (first compound 0.01 µM) it was 0.821; in test [2] (first compound 0.03162 µM), 0.778; in test [2] (first compound 0.1 µM), 0.79; in test [2] (first compound 0.3162 µM), 0.488; in test [2] (first compound 1 µM), 0.76.
